Source: ChEMBL document CHEMBL1201861, “Genomics of Drug Sensitity in Cancer screening data, Wellcome Trust Sanger Institute”

Columns and labels:
Test in all cases: cells
Conditions in all cases: Homo sapiens
DEL = format: functional, cell-based;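 note: growth inhibition of the human DEL cell line, read out with a cell viability assay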
Description: SANGER: Inhibition of human DEL cell growth in a cell viability assay.

HH = format: functional, cell-based
Description: SANGER: Inhibition of human HH cell growth in a cell viability assay.

TE-9 = format: functional, cell-based;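 note: cell growth inhibition, measured with a cell viability readout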
Description: SANGER: Inhibition of human TE-9 cell growth in a cell viability assay.

NCI-H1770 = format: functional, cell-based;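 note: growth inhibition of NCI-H1770 cells determined with a viability readout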
Description: SANGER: Inhibition of human NCI-H1770 cell growth in a cell viability assay.

OCUB-M = format: functional, cell-based;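 note: growth inhibition of the cancer cell line, read out through a cell viability assay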
Description: SANGER: Inhibition of human OCUB-M cell growth in a cell viability assay.

TK-10 = format: functional, cell-based;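 note: growth inhibition of TK-10 cells, read out in a cell viability assay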
Description: SANGER: Inhibition of human TK10 cell growth in a cell viability assay.

KLE = format: functional, cell-based;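 note: growth inhibition of human KLE cells, read out with a cell viability assay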
Description: SANGER: Inhibition of human KLE cell growth in a cell viability assay.

KP-N-YS = format: functional, cell-based;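 note: cell viability assay measuring inhibition of cell line growth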
Description: SANGER: Inhibition of human KP-N-YS cell growth in a cell viability assay.

NCI-H1092 = format: functional, cell-based;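 note: cell growth inhibition measured with a cell viability assay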
Description: SANGER: Inhibition of human NCI-H1092 cell growth in a cell viability assay.

KINGS-1 = format: functional, cell-based;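 note: cell viability assay measuring suppression of KINGS-1 cell growth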
Description: SANGER: Inhibition of human KINGS-1 cell growth in a cell viability assay.

TE-1 = format: functional, cell-based
Description: SANGER: Inhibition of human TE-1 cell growth in a cell viability assay.

TE-11 = format: functional, cell-based;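 note: growth inhibition of human TE-11 cells, read out by a cell viability assay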
Description: SANGER: Inhibition of human TE-11 cell growth in a cell viability assay.

COLO-684 = format: functional, cell-based
Description: SANGER: Inhibition of human COLO-684 cell growth in a cell viability assay.

UACC-257 = format: functional, cell-based
Description: SANGER: Inhibition of human UACC-257 cell growth in a cell viability assay.

SW982 = format: functional, cell-based;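 note: growth inhibition of SW982 cells, read out with a cell viability assay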
Description: SANGER: Inhibition of human SW982 cell growth in a cell viability assay.

SNB-75 = format: functional, cell-based;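 note: cell viability assay measuring growth inhibition of human SNB-75 cells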
Description: SANGER: Inhibition of human SNB75 cell growth in a cell viability assay.

DMS-79 = format: functional, cell-based;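 note: growth inhibition measured with a cell viability assay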
Description: SANGER: Inhibition of human DMS-79 cell growth in a cell viability assay.

GAK = format: functional, cell-based;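 note: cell growth inhibition read out by a cell viability assay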
Description: SANGER: Inhibition of human GAK cell growth in a cell viability assay.

D283 Med = format: functional, cell-based
Description: SANGER: Inhibition of human D-283MED cell growth in a cell viability assay.

NTERA-2-cl-D1 = format: functional, cell-based;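 note: inhibition of cell growth, measured with a cell viability assay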
Description: SANGER: Inhibition of human NTERA-S-cl-D1 cell growth in a cell viability assay.

MFM-223 = format: functional, cell-based
Description: SANGER: Inhibition of human MFM-223 cell growth in a cell viability assay.

MPP-89 = format: functional, cell-based;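 note: growth inhibition of human MPP-89 cells, read out with a cell viability assay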
Description: SANGER: Inhibition of human MPP-89 cell growth in a cell viability assay.

LOX IMVI = format: functional, cell-based
Description: SANGER: Inhibition of human LOXIMVI cell growth in a cell viability assay.

HEL = format: functional, cell-based;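 note: growth inhibition of HEL cells, read out with a cell viability assay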
Description: SANGER: Inhibition of human HEL cell growth in a cell viability assay.

CGTH-W-1 = format: functional, cell-based;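 note: growth inhibition of human CGTH-W-1 cells measured by cell viability assay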
Description: SANGER: Inhibition of human CGTH-W-1 cell growth in a cell viability assay.

NB5 = format: functional, cell-based;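 note: growth inhibition of NB5 cells, read out as cell viability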
Description: SANGER: Inhibition of human NB5 cell growth in a cell viability assay.

NH-12 = format: functional, cell-based;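 note: growth inhibition of NH-12 cells, read out with a cell viability assay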
Description: SANGER: Inhibition of human NH-12 cell growth in a cell viability assay.

SNU1 = format: functional, cell-based;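 note: growth inhibition of human NCI-SNU-1 cells, measured with a cell viability assay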
Description: SANGER: Inhibition of human NCI-SNU-1 cell growth in a cell viability assay.

RH-1 = format: functional, cell-based;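 note: growth inhibition of human RH-1 cells, read out with a cell viability assay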
Description: SANGER: Inhibition of human RH-1 cell growth in a cell viability assay.

CAS-1 = format: functional, cell-based;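 note: growth inhibition of CAS-1 cells, measured with a cell viability assay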
Description: SANGER: Inhibition of human CAS-1 cell growth in a cell viability assay.

KURAMOCHI = format: functional, cell-based;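 note: growth inhibition of KURAMOCHI cells, read out with a cell viability assay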
Description: SANGER: Inhibition of human KURAMOCHI cell growth in a cell viability assay.

COLO-824 = format: functional, cell-based
Description: SANGER: Inhibition of human COLO-824 cell growth in a cell viability assay.

ALL-PO = format: functional, cell-based;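 note: growth inhibition of ALL-PO cells, read out by a cell viability assay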
Description: SANGER: Inhibition of human ALL-PO cell growth in a cell viability assay.

MSTO-211H = format: functional, cell-based
Description: SANGER: Inhibition of human MSTO-211H cell growth in a cell viability assay.

Lu-65 = format: functional, cell-based;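 note: growth inhibition of Lu-65 cancer cells, read out by a cell viability assay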
Description: SANGER: Inhibition of human LU-65 cell growth in a cell viability assay.

LU-139 = format: functional, cell-based
Description: SANGER: Inhibition of human LU-139 cell growth in a cell viability assay.

MS-1 = format: functional, cell-based;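 note: growth inhibition of MS-1 cells, read out by cell viability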
Description: SANGER: Inhibition of human MS-1 cell growth in a cell viability assay.

NCI-H510A = format: functional, cell-based;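 note: growth inhibition of NCI-H510A cells, read out with a cell viability assay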
Description: SANGER: Inhibition of human NCI-H510A cell growth in a cell viability assay.

no-11 = format: functional, cell-based;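 note: growth inhibition of human NO-11 cells, read out with a cell viability assay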
Description: SANGER: Inhibition of human no-11 cell growth in a cell viability assay.

AM-38 = format: functional, cell-based;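 note: growth inhibition of AM-38 cells of human origin, read out by a cell viability assay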
Description: SANGER: Inhibition of human AM-38 cell growth in a cell viability assay.

Mo = format: functional, cell-based
Description: SANGER: Inhibition of human Mo-T cell growth in a cell viability assay.

KNS-42 = format: functional, cell-based;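 note: growth inhibition of KNS-42 cells, read out with a cell viability assay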
Description: SANGER: Inhibition of human KNS-42 cell growth in a cell viability assay.

NOS-1 = format: functional, cell-based;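 note: growth inhibition of the human NOS-1 cell line, read out with a cell viability assay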
Description: SANGER: Inhibition of human NOS-1 cell growth in a cell viability assay.

CP66-MEL = format: functional, cell-based;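 note: growth inhibition of CP66-MEL cells determined in a cell viability assay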
Description: SANGER: Inhibition of human CP66-MEL cell growth in a cell viability assay.

SW 954 = format: functional, cell-based;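 note: growth inhibition of SW954 human cancer cells, read out as cell viability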
Description: SANGER: Inhibition of human SW954 cell growth in a cell viability assay.

KU812 cell line = format: functional, cell-based;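 note: growth inhibition of KU812 cells, read out with a cell viability assay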
Description: SANGER: Inhibition of human KU812 cell growth in a cell viability assay.

U-87 MG = format: functional, cell-based, U-87MG ATCC;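 note: growth inhibition of the cells measured with a viability assay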
Description: SANGER: Inhibition of human U-87-MG cell growth in a cell viability assay.

NB10 = format: functional, cell-based;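 note: growth inhibition of NB10 cells, read out by a cell viability assay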
Description: SANGER: Inhibition of human NB10 cell growth in a cell viability assay.

GI-ME-N = format: functional, cell-based;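 note: growth inhibition of human GI-ME-N cells, read out with a cell viability assay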
Description: SANGER: Inhibition of human GI-ME-N cell growth in a cell viability assay.

SCC-15 = format: functional, cell-based;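 note: growth inhibition of SCC-15 cells, read out with a cell viability assay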
Description: SANGER: Inhibition of human SCC-15 cell growth in a cell viability assay.

DB = format: functional, cell-based
Description: SANGER: Inhibition of human DB cell growth in a cell viability assay.

SW684 = format: functional, cell-based;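 note: growth inhibition of human SW684 cells, measured by a cell viability assay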
Description: SANGER: Inhibition of human SW684 cell growth in a cell viability assay.

CTV-1 = format: functional, cell-based;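 note: growth inhibition of the cell line, read out with a cell viability assay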
Description: SANGER: Inhibition of human CTV-1 cell growth in a cell viability assay.

NCI-H23 = format: functional, cell-based;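 note: cell viability assay measuring growth inhibition of NCI-H23 cells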
Description: SANGER: Inhibition of human NCI-H23 cell growth in a cell viability assay.

TE-12 = format: functional, cell-based;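 note: growth inhibition of TE-12 cells, read out by a cell viability assay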
Description: SANGER: Inhibition of human TE-12 cell growth in a cell viability assay.

CW-2 = format: functional, cell-based;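 note: growth inhibition of CW-2 cells, read out by a cell viability assay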
Description: SANGER: Inhibition of human CW-2 cell growth in a cell viability assay.

NEC8 = format: functional, cell-based;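 note: growth inhibition of human NEC8 cells, read out by a cell viability assay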
Description: SANGER: Inhibition of human NEC8 cell growth in a cell viability assay.

MN-60 = format: functional, cell-based;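 note: growth inhibition of the MN-60 cell line, determined with a cell viability assay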
Description: SANGER: Inhibition of human MN-60 cell growth in a cell viability assay.

NCI-H1648 = format: functional, cell-based;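 note: cell viability assay measuring inhibition of NCI-H1648 cell growth, from the Sanger screening data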
Description: SANGER: Inhibition of human NCI-H1648 cell growth in a cell viability assay.

MZ1-PC = format: functional, cell-based;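 note: cell viability assay measuring growth inhibition of human MZ1-PC cells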
Description: SANGER: Inhibition of human MZ1-PC cell growth in a cell viability assay.

MEG-01 = format: functional, cell-based;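 note: growth inhibition of MEG-01 cells, read out by a cell viability assay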
Description: SANGER: Inhibition of human MEG-01 cell growth in a cell viability assay.

NCI-H226 = format: functional, cell-based;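 note: cell viability read-out used to gauge growth inhibition of the cells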
Description: SANGER: Inhibition of human NCI-H226 cell growth in a cell viability assay.

U-266 = format: functional, cell-based
Description: SANGER: Inhibition of human U-266 cell growth in a cell viability assay.

LC-2-ad = format: functional, cell-based;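 note: growth inhibition of human LC-2-ad cells, read out with a cell viability assay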
Description: SANGER: Inhibition of human LC-2-ad cell growth in a cell viability assay.

KALS-1 = format: functional, cell-based
Description: SANGER: Inhibition of human KALS-1 cell growth in a cell viability assay.

8-MG-BA = format: functional, cell-based
Description: SANGER: Inhibition of human 8-MG-BA cell growth in a cell viability assay.

Q: How did the IC50 (DEL) turn out when `Cn1cc(/C=C2\C(=O)Nc3cccnc32)c2ccccc21` was run?
A: > 2000 nM

Q: What about the IC50 (HH) of the same compound?
A: > 2000 nM

Q: And the IC50 (TE-9)?
A: > 2000 nM

Q: What about the IC50 (NCI-H1770) of the same compound?
A: > 2000 nM

Q: What about the IC50 (OCUB-M) of the same compound?
A: > 2000 nM

Q: And the IC50 (TK-10)?
A: > 2000 nM

Q: What about the IC50 (KLE) of the same compound?
A: > 2000 nM

Q: And the IC50 (KP-N-YS)?
A: > 2000 nM

Q: What about the IC50 (NCI-H1092) of the same compound?
A: > 2000 nM

Q: What about the IC50 (KINGS-1) of the same compound?
A: > 2000 nM

Q: What about the IC50 (TE-1) of the same compound?
A: > 2000 nM

Q: And the IC50 (TE-11)?
A: > 2000 nM

Q: And the IC50 (COLO-684)?
A: > 2000 nM

Q: And the IC50 (UACC-257)?
A: 1530 nM

Q: And the IC50 (SW982)?
A: > 2000 nM

Q: What about the IC50 (SNB-75) of the same compound?
A: > 2000 nM

Q: What about the IC50 (DMS-79) of the same compound?
A: > 2000 nM

Q: What about the IC50 (GAK) of the same compound?
A: > 2000 nM

Q: And the IC50 (D283 Med)?
A: > 2000 nM

Q: And the IC50 (NTERA-2-cl-D1)?
A: > 2000 nM

Q: What about the IC50 (MFM-223) of the same compound?
A: > 2000 nM

Q: And the IC50 (MPP-89)?
A: > 2000 nM

Q: What about the IC50 (LOX IMVI) of the same compound?
A: > 2000 nM

Q: What about the IC50 (HEL) of the same compound?
A: > 2000 nM

Q: What about the IC50 (CGTH-W-1) of the same compound?
A: > 2000 nM

Q: What about the IC50 (NB5) of the same compound?
A: > 2000 nM

Q: And the IC50 (NH-12)?
A: > 2000 nM

Q: What about the IC50 (SNU1) of the same compound?
A: > 2000 nM

Q: What about the IC50 (RH-1) of the same compound?
A: > 2000 nM

Q: And the IC50 (CAS-1)?
A: > 2000 nM

Q: And the IC50 (KURAMOCHI)?
A: > 2000 nM

Q: And the IC50 (COLO-824)?
A: > 2000 nM

Q: And the IC50 (ALL-PO)?
A: > 2000 nM

Q: And the IC50 (MSTO-211H)?
A: > 2000 nM

Q: What about the IC50 (Lu-65) of the same compound?
A: > 2000 nM

Q: And the IC50 (LU-139)?
A: > 2000 nM

Q: And the IC50 (MS-1)?
A: > 2000 nM

Q: What about the IC50 (NCI-H510A) of the same compound?
A: > 2000 nM

Q: What about the IC50 (no-11) of the same compound?
A: > 2000 nM

Q: What about the IC50 (AM-38) of the same compound?
A: > 2000 nM

Q: And the IC50 (Mo)?
A: > 2000 nM

Q: What about the IC50 (KNS-42) of the same compound?
A: > 2000 nM

Q: And the IC50 (NOS-1)?
A: > 2000 nM

Q: And the IC50 (CP66-MEL)?
A: > 2000 nM

Q: And the IC50 (SW 954)?
A: > 2000 nM

Q: And the IC50 (KU812 cell line)?
A: > 2000 nM

Q: What about the IC50 (U-87 MG) of the same compound?
A: > 2000 nM

Q: What about the IC50 (NB10) of the same compound?
A: > 2000 nM

Q: What about the IC50 (GI-ME-N) of the same compound?
A: > 2000 nM

Q: And the IC50 (SCC-15)?
A: > 2000 nM

Q: What about the IC50 (DB) of the same compound?
A: > 2000 nM

Q: And the IC50 (SW684)?
A: > 2000 nM

Q: And the IC50 (CTV-1)?
A: > 2000 nM

Q: And the IC50 (NCI-H23)?
A: > 2000 nM

Q: What about the IC50 (TE-12) of the same compound?
A: > 2000 nM

Q: What about the IC50 (CW-2) of the same compound?
A: > 2000 nM

Q: And the IC50 (NEC8)?
A: 1230 nM

Q: What about the IC50 (MN-60) of the same compound?
A: > 2000 nM

Q: And the IC50 (NCI-H1648)?
A: > 2000 nM

Q: And the IC50 (MZ1-PC)?
A: > 2000 nM

Q: What about the IC50 (MEG-01) of the same compound?
A: > 2000 nM

Q: What about the IC50 (NCI-H226) of the same compound?
A: > 2000 nM

Q: And the IC50 (U-266)?
A: > 2000 nM

Q: And the IC50 (LC-2-ad)?
A: > 2000 nM

Q: What about the IC50 (KALS-1) of the same compound?
A: > 2000 nM

Q: What about the IC50 (8-MG-BA) of the same compound?
A: > 2000 nM

Q: Which results are given for `N#C/C(=C1/Nc2ccccc2S1)c1ccnc(NCCc2cccnc2)n1`?
A: IC50 (DEL): 6240 nM; IC50 (HH): > 8000 nM; IC50 (TE-9): 6490 nM; IC50 (NCI-H1770): > 8000 nM; IC50 (OCUB-M): 1080 nM; IC50 (TK-10): 3740 nM; IC50 (KLE): > 8000 nM; IC50 (KP-N-YS): > 8000 nM; IC50 (NCI-H1092): > 8000 nM; IC50 (KINGS-1): > 8000 nM; IC50 (TE-1): > 8000 nM; IC50 (TE-11): 300 nM; IC50 (COLO-684): > 8000 nM; IC50 (UACC-257): > 8000 nM; IC50 (SW982): 1780 nM; IC50 (SNB-75): 5270 nM; IC50 (DMS-79): > 8000 nM; IC50 (GAK): 6740 nM; IC50 (D283 Med): > 8000 nM; IC50 (NTERA-2-cl-D1): > 8000 nM; IC50 (MFM-223): > 8000 nM; IC50 (MPP-89): 5200 nM; IC50 (LOX IMVI): > 8000 nM; IC50 (HEL): 7080 nM; IC50 (CGTH-W-1): 5540 nM; IC50 (NB5): > 8000 nM; IC50 (NH-12): > 8000 nM; IC50 (SNU1): > 8000 nM; IC50 (RH-1): > 8000 nM; IC50 (CAS-1): > 8000 nM; IC50 (KURAMOCHI): 3510 nM; IC50 (COLO-824): > 8000 nM; IC50 (ALL-PO): 1790 nM; IC50 (MSTO-211H): > 8000 nM; IC50 (Lu-65): > 8000 nM; IC50 (LU-139): > 8000 nM; IC50 (MS-1): > 8000 nM; IC50 (NCI-H510A): > 8000 nM; IC50 (no-11): > 8000 nM; IC50 (AM-38): > 8000 nM; IC50 (Mo): > 8000 nM; IC50 (KNS-42): > 8000 nM; IC50 (NOS-1): 5950 nM; IC50 (CP66-MEL): > 8000 nM; IC50 (SW 954): > 8000 nM; IC50 (KU812 cell line): 6650 nM; IC50 (U-87 MG): > 8000 nM; IC50 (NB10): > 8000 nM; IC50 (GI-ME-N): > 8000 nM; IC50 (SCC-15): > 8000 nM; IC50 (DB): > 8000 nM; IC50 (SW684): > 8000 nM; IC50 (CTV-1): 2850 nM; IC50 (NCI-H23): > 8000 nM; IC50 (TE-12): 1400 nM; IC50 (CW-2): > 8000 nM; IC50 (NEC8): > 8000 nM; IC50 (MN-60): > 8000 nM; IC50 (NCI-H1648): > 8000 nM; IC50 (MZ1-PC): > 8000 nM; IC50 (MEG-01): > 8000 nM; IC50 (NCI-H226): > 8000 nM; IC50 (U-266): > 8000 nM; IC50 (LC-2-ad): > 8000 nM; IC50 (KALS-1): > 8000 nM; IC50 (8-MG-BA): 3680 nM
